From ChEMBL document CHEMBL4184196, “Design, synthesis, and evaluation of polyamine-memantine hybrids as NMDA channel blockers” (Bioorg Med Chem, 2018)
Counter-ions that a name gives are not always drawn. The source made the active and inactive calls. No cut-off for these calls is given here.

Key:
Assay type in all cases: cell-based
[1] = target: Glutamate NMDA receptor; Grin1/Grin2a (Rattus norvegicus) (UniProt P35439+Q00959); experiment: Antagonist activity at rat brain GluN1/GluN2A receptor expressed in Xenopus laevis oocytes assessed as inhibition of glutamate/glycine-induced channel current at 1 uM by two electrode voltage clamp method
[2] = target: Glutamate NMDA receptor; Grin1/Grin2b (Rattus norvegicus) (UniProt P35439+Q00960); experiment: Antagonist activity at rat brain GluN1/GluN2B receptor expressed in Xenopus laevis oocytes assessed as inhibition of glutamate/glycine-induced channel current at 1 uM by two electrode voltage clamp method
[3] = target: Glutamate NMDA receptor; Grin1/Grin2a (Rattus norvegicus, UniProt P35439+Q00959); experiment: Antagonist activity at rat brain GluN1/GluN2A receptor expressed in Xenopus laevis oocytes assessed as inhibition of glutamate/glycine-induced channel current by two electrode voltage clamp method
[4] = target: Glutamate NMDA receptor; Grin1/Grin2b (Rattus norvegicus, UniProt P35439+Q00960); experiment: Antagonist activity at rat brain GluN1/GluN2B receptor expressed in Xenopus laevis oocytes assessed as inhibition of glutamate/glycine-induced channel current by two electrode voltage clamp method

| Compound | inhibition [1] | inhibition [2] | IC50 [3] | IC50 [4] |
| --- | --- | --- | --- | --- |
| CC12CC3CC(C)(C1)CC(NCCCCNCc1ccccc1)(C3)C2 | Active | Active | – | – |
| CC12CC3CC(C)(C1)CC(NCCCCNCCCCNC(=N)N)(C3)C2 | – | – | 379 nM | 433 nM |
| CC12CC3CC(C)(C1)CC(N)(C3)C2 [MEMANTINE HYDROCHLORIDE] | – | – | 1380 nM | – |
| CC12CC3CC(C)(C1)CC(NCCCCN=C(N)N)(C3)C2 | Active | Active | – | – |

Continued, values first:

| inhibition [1] | inhibition [2] | IC50 [3] | IC50 [4] | Compound |
| --- | --- | --- | --- | --- |
| Active | Active | – | – | CC12CC3CC(C)(C1)CC(NCCCCN)(C3)C2 |
| – | – | 656 nM | 587 nM | CC12CC3CC(C)(C1)CC(NCCCCNCCCCN)(C3)C2 |
| Active | Active | – | – | CC12CC3CC(C)(C1)CC(NCCCCCCCCCN)(C3)C2 |
